From ChEMBL document CHEMBL1129191, “Syntheses of trans-3-substituted-CCG-IV analogs and their characterization to ionotropic glutamate receptors” (Bioorg Med Chem Lett, 1996)
pIC50: −log10 of the molar value.

Assays:
Glutamate NMDA receptor = experiment: Compound was evaluated for the inhibition of [3H]CGS-19,755 binding to NMDA receptor from rat brain synaptic membrane.
[1] = target: Glutamate receptor ionotropic, AMPA (Rattus norvegicus, UniProt P19490+P19491+P19492+P19493)
Description: Compound was evaluated for the inhibition of [3H]AMPA binding to Ionotropic glutamate receptor AMPA from rat brain synaptic membrane.

| SMILES | pIC50 (Glutamate NMDA receptor) | pIC50 [1] |
| --- | --- | --- |
| N[C@H](C(=O)O)[C@@H]1C[C@@H]1C(=O)O | 8.28 | – |
| C=C(C)[C@H]1CN[C@H](C(=O)O)[C@H]1CC(=O)O [KAINIC ACID] | < 4.00 | – |
| N[C@H](C(=O)O)[C@@H]1[C@@H](COCc2ccccc2)[C@@H]1C(=O)O | 4.68 | < 4.00 |
| CC[C@H]1[C@H](C(=O)O)[C@@H]1[C@H](N)C(=O)O | 5.70 | 5.70 |
| C=C[C@H]1[C@H](C(=O)O)[C@@H]1[C@H](N)C(=O)O | 5.92 | 5.40 |
| COC[C@H]1[C@H](C(=O)O)[C@@H]1[C@H](N)C(=O)O | 4.30 | 5.40 |
| C=C1C[C@@H]([C@H](N)C(=O)O)[C@@H](C(=O)O)C1 | < 4.00 | 5.12 |
| CN[C@H](CC(=O)O)C(=O)O [N-METHYL-D-ASPARTIC ACID (NMDA)] | 5.26 | < 4.00 |
